As usually defined, the IC50 is the midpoint of a concentration-inhibition curve. Read a high IC50 as lower potency.

Molecules are shown by their SMILES. Structures can show the parent of a compound that is named as a salt. Where two headings read alike, the source gives them in different places.

For one assay, the system named is neointimal formation. Particulars: rats; cited from earlier work.
In assay [1] the test system is spontaneously hypertensive rat, renal hypertensive rat and deoxycortisone acetate salt hypertensive rat models. The note with it: cited from earlier work.
The test system of assay [2] is congestive heart failure in Dahl salt-sensitive rats. The note with it: rat, in vivo; cited from earlier work.
Assay [3] relates to IL-1 beta-induced coronary stenosis. The note with it: long term treatment; cited from earlier work.
For the next assay, the system named is rat stroke model. The note with it: in vivo; cited from earlier work.
Another assay addresses ROCK2 (Homo sapiens (Human), UniProt O75116). Kind of assay: ROCK2 kinase inhibition assay (FITC peptide substrate, LABCHIP 3000 Reader). Type of assay: biochemical. The note with it: 5 μM ATP, 1.5 μM peptide substrate. The essentials:
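Reaction in 20 mM HEPES pH 7.5, 20 mM MgCl2, 0.015% Brij-35, 4 mM DTT with 5 μM ATP and 1.5 μM FITC-AHA-AKRRRLSSLRA-OH peptide, started with Rho kinase, DMSO <2%. EDTA-stopped; phospho and non-phospho peptide separated by mobility shift. IC50 from dose-response curve fit.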

ROCK2, sequence (O75116 whole entry, species assumed): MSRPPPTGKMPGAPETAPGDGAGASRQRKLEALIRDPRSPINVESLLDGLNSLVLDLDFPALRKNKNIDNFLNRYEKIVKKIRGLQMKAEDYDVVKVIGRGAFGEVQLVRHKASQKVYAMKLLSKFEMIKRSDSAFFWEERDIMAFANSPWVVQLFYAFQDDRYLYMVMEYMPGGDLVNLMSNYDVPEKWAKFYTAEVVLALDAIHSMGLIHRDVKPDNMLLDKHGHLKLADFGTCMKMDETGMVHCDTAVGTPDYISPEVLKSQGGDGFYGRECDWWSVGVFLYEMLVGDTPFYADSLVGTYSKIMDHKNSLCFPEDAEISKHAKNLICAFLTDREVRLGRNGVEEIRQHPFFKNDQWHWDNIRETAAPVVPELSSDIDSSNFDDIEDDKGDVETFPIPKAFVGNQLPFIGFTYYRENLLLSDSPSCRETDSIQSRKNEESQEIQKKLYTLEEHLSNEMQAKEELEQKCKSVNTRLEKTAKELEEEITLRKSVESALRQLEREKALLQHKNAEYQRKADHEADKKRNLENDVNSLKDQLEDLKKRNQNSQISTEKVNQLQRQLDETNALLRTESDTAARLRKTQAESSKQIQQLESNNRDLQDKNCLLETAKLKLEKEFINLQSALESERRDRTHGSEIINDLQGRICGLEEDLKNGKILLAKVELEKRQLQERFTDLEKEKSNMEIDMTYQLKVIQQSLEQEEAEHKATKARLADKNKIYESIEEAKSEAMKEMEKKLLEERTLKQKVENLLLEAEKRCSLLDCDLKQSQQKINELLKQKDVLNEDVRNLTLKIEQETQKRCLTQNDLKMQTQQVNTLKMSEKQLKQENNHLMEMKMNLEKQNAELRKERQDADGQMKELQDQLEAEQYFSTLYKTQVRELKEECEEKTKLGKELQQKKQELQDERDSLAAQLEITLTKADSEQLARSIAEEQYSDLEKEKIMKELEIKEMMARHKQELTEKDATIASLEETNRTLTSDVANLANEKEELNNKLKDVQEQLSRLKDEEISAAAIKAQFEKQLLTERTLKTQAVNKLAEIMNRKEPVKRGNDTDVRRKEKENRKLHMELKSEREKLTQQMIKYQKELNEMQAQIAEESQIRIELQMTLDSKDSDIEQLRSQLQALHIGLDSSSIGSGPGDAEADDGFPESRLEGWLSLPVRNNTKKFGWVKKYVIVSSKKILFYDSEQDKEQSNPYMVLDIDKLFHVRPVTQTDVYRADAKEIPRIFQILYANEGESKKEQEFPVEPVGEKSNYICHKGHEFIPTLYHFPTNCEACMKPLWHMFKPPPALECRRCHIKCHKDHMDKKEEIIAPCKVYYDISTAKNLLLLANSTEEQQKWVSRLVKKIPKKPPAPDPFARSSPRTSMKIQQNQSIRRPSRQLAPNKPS

For `C[C@@H](N)[C@H]1CC[C@H](C(=O)Nc2ccncc2)CC1` [Example Y-27632, Y-27632], in the assay on neointimal formation, the neointimal formation entry is “inhibited neointimal formation”. Moreover, the “effect on blood pressure” value in assay [1] (control rats) is “only a minor effect on blood pressure”; in assay [1] (three rat models of hypertension) it was “significantly decrease blood pressure”. In addition, the “ventricular hypertrophy, fibrosis and function” value in assay [2] was “improve ventricular hypertrophy, fibrosis and function”.

With `O=S(=O)(c1cccc2cnccc12)N1CCCNCC1` [fasudil], in assay [3], the coronary constrictive remodeling entry is recorded as “promote a regression of coronary constrictive remodeling” and the coronary stenosis result is given as “progressively reduce coronary stenosis”. Also, the “infarct size and neurologic deficit” value in the assay on rat stroke model was “reduce both the infarct size and neurologic deficit”.

Compound `CC1(NC(=O)c2cccc(CN3C(=O)N(c4ccc(-c5cn[nH]c5)cc4)CC34CCOCC4)c2)CC1` [Example 39, 3-((3-(4-(1H-pyrazol-4-yl)phenyl)-2-oxo-8-oxa-1,3-diazaspiro[4.5]decan-1-yl)methyl)-N-(1-methylcyclopropyl)benzamide] returned an IC50 at ROCK2 of 3 to 30 nM.

In turn, `CCOC(=O)N1CCC2(CC1)CN(c1ccc(-c3cn[nH]c3)cc1)C(=O)N2Cc1cccc(OC)c1` [Example 96, ethyl 3-(4-(1H-pyrazol-4-yl)phenyl)-1-(3-methoxybenzyl)-2-oxo-1,3,8-triazaspiro[4.5]decane-8-carboxylate] gave an IC50 at ROCK2 of less than 3 nM.

Consider `COc1cccc(NC2C(=O)N(c3ccc(-c4cn[nH]c4)cn3)CC23CCN(C(=O)CCN2CCCC2=O)CC3)c1` (stereo not drawn) [Example 259, 2-(5-(1H-pyrazol-4-yl)pyridin-2-yl)-4-((3-methoxy-phenyl)amino)-8-(3-(2-oxo-pyrrolidin-1-yl)pro-panoyl)-2,8-diazaspiro [4.5]decan-3-one], for which the IC50 on ROCK2 was 250 to 3000 nM.

On ROCK2, `CCc1nc(N2CC3(CCN(CCC(F)(F)F)CC3)N(Cc3cccc(F)c3C)C2=O)ccc1-c1cn[nH]c1` [Example 126, 3-(6-ethyl-5-(1H-pyrazol-4-yl)pyridin-2-yl)-1-(3-fluoro-2-methylbenzyl)-8-(3,3,3-trifluoropropyl)-1,3,8-triazaspiro[4.5]decan-2-one] came in with an IC50 of 3 to 30 nM.

`O=C1N(c2ccc(-c3cn[nH]c3)cc2)CC2(CCOCC2)N1CC1CCCCC1` [Example 30, 3-(4-(1H-pyrazol-4-yl)phenyl)-1-(cyclohexylmethyl)-8-oxa-1,3-diazaspiro[4.5]decan-2-one] displayed a concentration for half-maximal inhibition (IC50) against ROCK2 of 30 to 250 nM.

The compound `COc1cccc(CN2C(=O)N(c3ccc(-c4cn[nH]c4)cc3)CC23CCN(C(=O)OC(C)C)CC3)c1` [Example 99, isopropyl 3-(4-(1H-pyrazol-4-yl)phenyl)-1-(3-methoxybenzyl)-2-oxo-1,3,8-triazaspiro[4.5]decane-8-carboxylate] gave a 50% inhibitory concentration (IC50) at ROCK2 of less than 3 nM.

`COc1cccc(NC2C(=O)N(c3ccc(-c4cn[nH]c4)cc3)CC23CN(C(=O)C2COC2)C3)c1` (stereo not drawn) [Example 245, 6-(4-(1H-pyrazol-4-yl)phenyl)-8-((3-methoxy-phenyl)amino)-2-(oxetane-3-carbonyl)-2,6-diazaspiro [3.4]octan-7-one]: at ROCK2, the IC50 was in the range of 250 to 3000 nM.

`CCc1nc(N2CC3(CCNCC3)N(Cc3cccc(OC)c3)C2=O)ccc1-c1cn[nH]c1` [Example 75, 3-(6-ethyl-5-(1H-pyrazol-4-yl)pyridin-2-yl)-1-(3-methoxybenzyl)-1,3,8-triazaspiro[4.5]decan-2-one, TFA]: at ROCK2, the IC50 was less than 3 nM.

For the compound `COc1nc(N2CC3(CCN(C(C)=O)CC3)N(Cc3cccc(F)c3C)C2=O)ccc1-c1cn[nH]c1` [Example 86, 8-acetyl-1-(3-fluoro-2-methylbenzyl)-3-(6-methoxy-5-(1H-pyrazol-4-yl)pyridin-2-yl)-1,3,8-triazaspiro[4.5]decan-2-one], on ROCK2, the IC50 was less than 3 nM.

On to `COc1cccc(CN2C(=O)N(c3ccc(-c4cn[nH]c4)cn3)CC23CCN(CC(C)(C)O)CC3)c1` [Example 161, 3-(5-(1H-pyrazol-4-yl)pyridin-2-yl)-8-(2-hydroxy-2-methylpropyl)-1-(3-methoxybenzyl)-1,3,8-triazaspiro[4.5]decan-2-one], for which the IC50 against ROCK2 was less than 3 nM.

On ROCK2, `COc1nc(N2CC3(CCN(C(=O)C(C)(C)O)CC3)N(Cc3cccc(F)c3C)C2=O)ccc1-c1cn[nH]c1` [Example 230, 1-(3-fluoro-2-methylbenzyl)-8-(2-hydroxy-2-methylpropanoyl)-3-(6-methoxy-5-(1H-pyrazol-4-yl)pyridin-2-yl)-1,3,8-triazaspiro[4.5]decan-2-one] showed an IC50 of less than 3 nM.

Take `COc1cccc(CN2C(=O)N(c3ccc(-c4cn[nH]c4)cc3)CC23CCN(C(=O)N(C)C)CC3)c1` [Example 93, 3-(4-(1H-pyrazol-4-yl)phenyl)-1-(3-methoxybenzyl)-N,N-dimethyl-2-oxo-1,3,8-triazaspiro[4.5]decane-8-carboxamide]: at ROCK2, the IC50 is less than 3 nM.

Compound `COCCN1CCC2(CC1)CN(c1ccc(-c3cn[nH]c3)c(OC)n1)C(=O)N2Cc1cccc(F)c1C` [Example 165, 1-(3-fluoro-2-methylbenzyl)-3-(6-methoxy-5-(1H-pyrazol-4-yl)pyridin-2-yl)-8-(2-methoxyethyl)-1,3,8-triazaspiro[4.5]decan-2-one] registered an IC50 on ROCK2 of less than 3 nM.

On ROCK2, `O=C1N(c2ccc(-c3cn[nH]c3)cc2)CC2(CCNCC2)N1CC1CCCCC1` [Example 67] yielded an IC50 of 3 to 30 nM.

Regarding `COc1cccc(CN2C(=O)N(c3ccc(-c4cn[nH]c4)c(OC)n3)CC23CCN(CC(F)F)CC3)c1` [Example 135, 8-(2,2-difluoroethyl)-3-(6-methoxy-5-(1H-pyrazol-4-yl)pyridin-2-yl)-1-(3-methoxybenzyl)-1,3,8-triazaspiro[4.5]decan-2-one], the IC50 on ROCK2 was less than 3 nM.

`CCc1nc(N2CC3(CCN(C(=O)C(C)(C)O)CC3)N(Cc3cccc(OC)c3)C2=O)ccc1-c1cn[nH]c1` [Example 205, 3-(6-ethyl-5-(1H-pyrazol-4-yl)pyridin-2-yl)-8-(2-hydroxy-2-methylpropanoyl)-1-(3-methoxybenzyl)-1,3,8-triazaspiro[4.5]decan-2-one] showed an IC50 against ROCK2 of 3 to 30 nM.

In turn, `COc1cccc(CN2C(=O)N(c3ccc(-c4cn[nH]c4)cc3)CC23CCN(CC(C)(C)O)CC3)c1` [Example 138, 3-(4-(1H-pyrazol-4-yl)phenyl)-8-(2-hydroxy-2-methylpropyl)-1-(3-methoxybenzyl)-1,3,8-triazaspiro[4.5]decan-2-one] registered an IC50 against ROCK2 of less than 3 nM.

(Values after US10787450B2 (BRISTOL-MYERS SQUIBB COMPANY, priority 2016, dated 2020).)
